The test system of test [1] is MDA-MB-231. Description: Inhibition of TNF-alpha-induced cell motility in human MDA-MB-231 cells assessed as lamellipodium projection at 10 uM pretreated for 30 mins followed by addition of TNF-alpha measured after 10 mins by rhodamine- phalloidin staining based assay. It counts as functional.
The target in test [2] is T1, Inhibitor of NF-kappa-B kinase (IKK) (Homo sapiens) (UniProt O14920+O15111+Q9Y6K9). As to the kind of experiment: Inhibition of IKK in human MDA-MB-231 cells assessed as inhibition of TNF-alpha-induced IkappaB phosphorylation at Ser-32 residue at 5 and 10 uM pretreated for 30 mins followed by addition of TNF-alpha for 1 hr by immunoblot analysis. In kind it is cell-based.

The test system of test [3] is MDA-MB-231. Description: Inhibition of TNF-alpha-induced cell invasion in human MDA-MB-231 cells at 10 uM pretreated for 30 mins followed by addition of TNF-alpha measured after 24 hrs by matrigel invasion assay. In kind it is functional, cell-based.
In test [4] the target is T1, Inhibitor of NF-kappa-B kinase (IKK) (Homo sapiens). As to the kind of experiment: Inhibition of IKK in human MDA-MB-231 cells assessed as inhibition of TNF-alpha-induced NF-kappaB transcriptional activity pretreated with compound for 30 mins followed by addition of TNF-alpha for 8 hrs by luciferase reporter gene assay. It counts as cell-based. In general terms: Reporter assays use an easily measured gene product as a stand-in for the process of interest.

The target is the same in test [5]. Description: Inhibition of IKK in human MDA-MB-231 cells assessed as decrease in TNF-alpha-induced GROalpha mRNA level pretreated with compound for 30 mins followed by addition of TNF-alpha measured after 12 hrs by RT-PCR analysis. In kind it is cell-based.
In test [6] the test system is MDA-MB-231. Description: Inhibition of TNF-alpha-induced cell migration in human MDA-MB-231 cells at 10 uM pretreated for 30 mins followed by addition of TNF-alpha measured after 6 hrs by scratch wound healing assay. In kind it is functional, cell-based.
Test [7] concerns the target T2, Inhibitor of nuclear factor kappa-B kinase subunit beta (Homo sapiens) (UniProt O14920).
T2 sequence (whole entry): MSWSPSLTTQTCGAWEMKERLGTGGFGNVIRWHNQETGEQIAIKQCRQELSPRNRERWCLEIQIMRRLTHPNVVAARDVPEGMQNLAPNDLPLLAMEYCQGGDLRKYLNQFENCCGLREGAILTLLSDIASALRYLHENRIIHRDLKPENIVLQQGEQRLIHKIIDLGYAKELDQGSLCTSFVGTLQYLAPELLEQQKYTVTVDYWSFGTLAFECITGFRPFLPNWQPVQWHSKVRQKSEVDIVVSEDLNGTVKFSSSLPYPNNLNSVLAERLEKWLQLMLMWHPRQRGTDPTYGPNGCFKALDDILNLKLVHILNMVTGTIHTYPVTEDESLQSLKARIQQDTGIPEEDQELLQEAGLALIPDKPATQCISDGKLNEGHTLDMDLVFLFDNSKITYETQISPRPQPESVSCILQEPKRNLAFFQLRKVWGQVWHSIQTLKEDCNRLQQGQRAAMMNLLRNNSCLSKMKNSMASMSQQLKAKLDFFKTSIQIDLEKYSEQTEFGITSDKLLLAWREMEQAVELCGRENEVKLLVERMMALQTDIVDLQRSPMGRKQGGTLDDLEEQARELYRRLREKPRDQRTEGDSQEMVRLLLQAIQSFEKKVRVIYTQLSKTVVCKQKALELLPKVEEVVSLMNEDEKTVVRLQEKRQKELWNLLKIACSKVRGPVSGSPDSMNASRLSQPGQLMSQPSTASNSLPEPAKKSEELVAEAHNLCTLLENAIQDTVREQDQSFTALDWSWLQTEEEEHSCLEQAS
As to the kind of experiment: Inhibition of TNF-alpha-induced IKK-beta phosphorylation at Ser180 residue in human MDA-MB-231 cells at 5 and 10 uM pretreated for 30 mins followed by addition of TNF-alpha for 1 hr by immunoblot analysis. It counts as cell-based. A general note: Immunoblotting shows a protein as a band on a membrane.

The target in test [8] is T1, Inhibitor of NF-kappa-B kinase (IKK) (Homo sapiens). As to the kind of experiment: Inhibition of IKK in human MDA-MB-231 cells assessed as decrease in TNF-alpha-induced GROalpha mRNA level pretreated with compound for 30 mins followed by addition of TNF-alpha measured after 12 hrs by QR-PCR analysis. In kind it is cell-based.
For test [9] the target is unchanged. Description: Inhibition of IKK in human MDA-MB-231 cells assessed as inhibition of TNF-alpha-induced GROalpha promoter activation pretreated with compound for 30 mins followed by addition of TNF-alpha for 8 hrs by luciferase reporter gene assay. In kind it is cell-based.
Test [10] shares this target. Description: Inhibition of IKK in human MDA-MB-231 cells assessed as decrease in TNF-alpha-induced GROalpha mRNA level at 10 uM pretreated for 30 mins followed by addition of TNF-alpha measured after 12 hrs by QR-PCR analysis. It counts as cell-based.
For test [11] the target is unchanged. As to the kind of experiment: Inhibition of IKK in human MDA-MB-231 cells assessed as inhibition of TNF-alpha-induced p65/RelA phosphorylation at Ser-536 residue at 5 and 10 uM pretreated for 30 mins followed by addition of TNF-alpha for 1 hr by immunoblot analysis. In kind it is cell-based.
Test [12] has as its target T3, Inhibitor of nuclear factor kappa-B kinase subunit alpha (Homo sapiens) (UniProt O15111).
T3 sequence (whole entry): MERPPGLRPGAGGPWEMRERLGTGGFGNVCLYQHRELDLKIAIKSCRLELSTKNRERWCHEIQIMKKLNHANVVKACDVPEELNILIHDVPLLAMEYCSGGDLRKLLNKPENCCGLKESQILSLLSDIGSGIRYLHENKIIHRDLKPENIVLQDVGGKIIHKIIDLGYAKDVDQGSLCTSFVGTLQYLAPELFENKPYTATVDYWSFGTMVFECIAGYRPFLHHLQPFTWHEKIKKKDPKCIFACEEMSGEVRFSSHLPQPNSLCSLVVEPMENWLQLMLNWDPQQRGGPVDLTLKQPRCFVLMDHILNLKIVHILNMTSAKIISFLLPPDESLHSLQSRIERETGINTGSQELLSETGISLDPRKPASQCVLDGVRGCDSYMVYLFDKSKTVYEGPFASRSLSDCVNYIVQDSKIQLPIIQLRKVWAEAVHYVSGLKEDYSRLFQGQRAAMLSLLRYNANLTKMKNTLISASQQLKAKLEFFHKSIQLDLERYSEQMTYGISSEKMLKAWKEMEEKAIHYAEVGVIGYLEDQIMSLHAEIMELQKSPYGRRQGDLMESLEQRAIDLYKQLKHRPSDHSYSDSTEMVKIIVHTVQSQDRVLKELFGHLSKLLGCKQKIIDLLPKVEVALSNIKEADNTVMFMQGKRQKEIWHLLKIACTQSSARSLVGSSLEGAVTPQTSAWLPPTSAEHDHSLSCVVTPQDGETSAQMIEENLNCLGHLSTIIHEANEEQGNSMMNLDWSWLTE
Description: Inhibition of TNF-alpha-induced IKK-alpha phosphorylation in human MDA-MB-231 cells at Ser176 residue at 5 and 10 uM pretreated for 30 mins followed by addition of TNF-alpha for 1 hr by immunoblot analysis. It counts as cell-based.

Test [13] concerns MDA-MB-231. Description: Inhibition of TNF-alpha-induced cell invasion in human MDA-MB-231 cells assessed as decrease in spindle-like protrusions at 10 uM pretreated for 30 mins followed by addition of TNF-alpha by microscopic analysis. In kind it is functional, cell-based.
For test [14], the target named is T1, Inhibitor of NF-kappa-B kinase (IKK) (Homo sapiens). As to the kind of experiment: Inhibition of IKK in human MDA-MB-231 cells assessed as inhibition of TNF-alpha-induced p65/RelA phosphorylation at Ser-536 residue in nucleus at 10 uM pretreated for 30 mins followed by addition of TNF-alpha for 1 hr by immunofluorescence analysis. In kind it is cell-based.

The structures appear in SMILES notation. Active and inactive are the calls of the source. No cut-off for these calls is given here.

For `COc1cc(/C=C/C(=O)c2cc(OC)ccc2O)cc(OC)c1`, the inhibition result (with MDA-MB-231 [1]; in test [2]; in the test with MDA-MB-231 [3]; in the test with MDA-MB-231 [6]; in test [7]; in [11]) was “Active” each time. Further, the inhibition result (in test [12]; in the test on MDA-MB-231 [13]; in test [14]) was “Active” in each case. For the same compound, the inhibition result in test [4], in test [5], in [8] and in test [9] was “Dose-dependent effect” throughout. Moreover, in test [10], the fold change (FC) was found to be 4.1.

Values taken from ChEMBL document CHEMBL3739305, “A synthetic chalcone derivative, 2-hydroxy-3',5,5'-trimethoxychalcone (DK-139), suppresses the TNFα-induced invasive capability of MDA-MB-231 human breast cancer cells by inhibiting NF-κB-mediated GROα expression” (Bioorg Med Chem Lett, 2016).
